Source: patent publication US4891361A, “Method of minimizing erythema and elastosis” (Sansho Seiyaku Co., Ltd., priority 1985, dated 1990)

Experiments:
erythema = test: Animal test: severity of UV-induced erythema on rat back; type: in vivo, female Spraguex-Dawley rats; design: key: -: No erythema; ±: Very slight erythema; +: Slight erythema; ++: Medium erythema; +++: Severe erythema; conditions: Test zone, 1% suspension
Text: (§1) Test Method Ten heads of female Spraguex-Dawley rats of 4-week age were used for the test. The back of each rat was divided into two zones along its center line; one (test zone) was coated with a 1% suspension of kojic acid in a 1% aqueous solution of carboxymethylcellulose, and the other (control zone) was coated with a 1% aqueous solution of carboxymethylcellulose. The coated solution was washed off with hot water one hour later, and each zone was then irradiated with ultraviolet rays for 20 minutes using four UV tubes (Toshiba, Model 20S;E30) placed 62 cm away from the back of each rat. This operation was performed three times a week (on Monday, Wednesday and Friday) and continued over a period of six months. The drug solution and control solution were applied every day (even on days when UV irradiation was omitted). After that, the coating operation alone was continued for an additional six months. Severity of erythema developed on each zone was observed immediately after the start of the test, and 2, 4, 6, 8, 10 and 12 months later.

elastosis = test: Animal test: UV-induced elastosis, elastic fiber histology (Hematoxylin-Eosin, Weigert and Orcein-Giemsa staining); type: in vivo, female Spraguex-Dawley rats; conditions: Test Zone, 1% suspension, total 10, end of the test (12 months)
Text: as §1, with “At” for “Severity of erythema developed on each zone was observed immediately after”, “end” for “start”, “test, tissues were excised from the test” for “test,”, “control zones of each rat, paraffin sections of the skin, prepared from the tissues taken out, were subjected to a Hematoxylin-Eosin, Weigert” for “2, 4, 6, 8, 10”, “Orcein-Giemsa staining process, and the conditions of the elastic fiber were observed.” for “12 months later.”

mice = mice (both male and female), orally administered; cited from earlier work
rats = rats (both male and female), orally administered; cited from earlier work
mouse melanoma B16 cells = test: Color fading test of cultured pigment cells (mouse melanoma B16 cells); type: cell-based
Procedure: Besides the effects described above, the drugs of this invention also have powerful action to inhibit the formation of melanin. To be more specific, the drugs are very effective in inhibiting the formation of dopachrome (a red pigment). […] A color fading test of cultured pigment cells was carried out using kojic acid and kojic acid/β-cyclodextrin inclusion complex.
B: 20% solution of kojic acid/β-cyclodextrin inclusion complex
Mouse melanoma B16 cells (hereinafter referred to simply as "B16 cells") (each dish containing […] cells) were grown in Eagle's MEM medium (with 10% fetal calf serum added thereto), (a) in the presence of kojic acid at a concentration of 2.5 mM (Test zone A), (b) in the presence of kojic acid/β-cyclodextrin inclusion complex at a concentration of 2.5 mM (as kojic acid) (Test zone B), and (c) in the absence of any drug (Test zone C), at 37° C. for six days in an atmosphere consisting of 5% CO2 and 95% air. At the end of incubation, each culture was treated with trypsin, then centrifuged at 2000rpm for five minutes to prepare cell pellets, and the degree of blackness was visually compared.

O=c1cc(CO)occ1O [Kojic acid]
Severity of erythema (erythema; Coating Alone, month 8): -
Severity of erythema (erythema; Coating Alone, month 10): -
Severity of erythema (erythema; Coating Alone, month 12): -
Severity of erythema (erythema; Irradiation Period, month 0 (immediately after the start)): -
Severity of erythema (erythema; Irradiation Period, month 2): +
Severity of erythema (erythema; Irradiation Period, month 4): ++
Severity of erythema (erythema; Irradiation Period, month 6): ++
Number of rats with evaluation + (Slight elastosis) (elastosis): 3
Number of rats with evaluation ++ (Medium elastosis) (elastosis): 1
Number of rats with evaluation +++ (Severe elastosis) (elastosis): 0
Number of rats with evaluation - (No elastosis) (elastosis): 3
Number of rats with evaluation ± (Very slight elastosis) (elastosis): 3
LD50 (mice): 2500 to 3500 mg/kg
LD50 (rats): 2500 to 3500 mg/kg
Color fading (degree of blackness of cell pellet, visual) (mouse melanoma B16 cells; 2.5 mM (as kojic acid), six days, 37° C., compared with Test zone C (control)): Considerable color fading
Inhibition of the formation of melanin (conclusion from color fading test) (mouse melanoma B16 cells; mouse melanoma B16 cells): outstanding effect
